Measurements published in patent publication US8569467B2, “C-glycoside compounds, and method for preparing C-glycoside compounds” (Ecole Nationale Supérieure de Chimie de Rennes, priority 2008, dated 2013).
Several values for one entry are separate records, joined by “and”; a condition that tells them apart may be missing. Identical values can stand only once.

What was measured:
[1] = Effect on the cloud temperature of the reference surfactant C6E2; type: physicochemical
Procedure: Finally, the effects of various C-glycoside compounds obtained according to the invention on the cloud temperature of a surfactant were tested in order to evaluate the advantage thereof for the stabilisation of the formulations.
The surfactant taken as a reference is C6E2, diethylene glycol monohexylether.

[2] = Tensiometric measurements of CMC/MAC and interface tension; type: physicochemical; details: tensiometric measurement
From the text: Tensiometric measurements, namely the measurement of the CMC (Critical Micelle Concentration) and the MAC (Minimal Aggregation Concentration) were made on various compounds obtained according to the invention.

[3] = C6E2 (1% weight) + product (10% weight)
[4] = C6E2 (1% weight) + product (1% weight)

Compound | Cloud temp [1, 3] [°C] | CMC*/MAC** (Critical Micelle Concentration / Minimum Aggregation Concentration) [2] [mM] | γCMC/MAC*** (interface tension at the CMC/MAC) [2] | Cloud temp [1, 4] [°C] | Cloud temp ([1]; C6E2 (1% weight) alone, reference surfactant) [°C]
C=CCC(C)(O)C[C@@H]1OC(CO)[C@@H](O[C@@H]2OC(CO)[C@H](O)C(O)C2O)C(O)C1O (single isomer, unassigned) [5-C-(Lactosyl)-4-methylpent-1-ene-4-ol, 5-(C-Lactosyl)-4-methylpent-1-en-4-ol] | 39 |  |  |  | 
CCCCCC(=O)CC1O[C@H](CO)[C@H](O)[C@H](O)[C@H]1O (stereo partly shown) [1-C-(Galactosyl)-heptan-2-one] |  | 17.5 | 30 Mn · m^−1 |  | 
CCCCCC(=O)CC1O[C@H](CO)[C@@H](O[C@@H]2O[C@H](CO)[C@H](O)[C@H](O)[C@H]2O)[C@H](O)[C@H]1O (stereo partly shown) [1-C-(Lactosyl)-heptan-2-one] |  | 17 | 30 Mn · m^−1 | 58 | 
C=CCC(C)(O)C[C@@H]1OC(CO)[C@@H](O)C(O)C1O (single isomer, unassigned) [5-C(Glucosyl)-4-methylpent-1-ene-4-ol, 5-(C-Glucosyl)-4-methylpent-1-ene-4-ol] | 44 | 350 | 34 Mn · m^−1 |  | 
CCCCCCOCCOCCO [Example C6E2, diethylene glycol monohexylether, reference compound] |  |  |  |  | 34
C=CCC(C)(O)CC1O[C@H](CO)[C@H](O)[C@H](O)[C@H]1O (stereo partly shown) [5-C-(Galactosyl)-4-methylpent-1-ene-4-ol] | 42 |  |  |  | 
CCCCCC(=O)C[C@@H]1OC(CO)[C@@H](O)C(O)C1O (stereo partly shown) [1-C-(Glucosyl)-heptan-2-one, 1-(C-Glucosyl)-heptan-2-one] |  |  | 30 Mn · m^−1 and 28 Mn · m^−1 | 62 | 
